molecular target: T1, Lysine-specific demethylase 2A (Homo sapiens, UniProt Q9Y2K7); test: Inhibition of KDM2A (unknown origin) expressed in Escherichia coli using Biotin H3 (28 to 48 residues) Me2 KDM2A Cognate Ligande/10 uM alpha-ketoglutarate as substrate/cofactor preincubated for 15 mins followed by substrate addition measured after 30 mins by alphascreen assay
T1 sequence (Q9Y2K7 whole entry): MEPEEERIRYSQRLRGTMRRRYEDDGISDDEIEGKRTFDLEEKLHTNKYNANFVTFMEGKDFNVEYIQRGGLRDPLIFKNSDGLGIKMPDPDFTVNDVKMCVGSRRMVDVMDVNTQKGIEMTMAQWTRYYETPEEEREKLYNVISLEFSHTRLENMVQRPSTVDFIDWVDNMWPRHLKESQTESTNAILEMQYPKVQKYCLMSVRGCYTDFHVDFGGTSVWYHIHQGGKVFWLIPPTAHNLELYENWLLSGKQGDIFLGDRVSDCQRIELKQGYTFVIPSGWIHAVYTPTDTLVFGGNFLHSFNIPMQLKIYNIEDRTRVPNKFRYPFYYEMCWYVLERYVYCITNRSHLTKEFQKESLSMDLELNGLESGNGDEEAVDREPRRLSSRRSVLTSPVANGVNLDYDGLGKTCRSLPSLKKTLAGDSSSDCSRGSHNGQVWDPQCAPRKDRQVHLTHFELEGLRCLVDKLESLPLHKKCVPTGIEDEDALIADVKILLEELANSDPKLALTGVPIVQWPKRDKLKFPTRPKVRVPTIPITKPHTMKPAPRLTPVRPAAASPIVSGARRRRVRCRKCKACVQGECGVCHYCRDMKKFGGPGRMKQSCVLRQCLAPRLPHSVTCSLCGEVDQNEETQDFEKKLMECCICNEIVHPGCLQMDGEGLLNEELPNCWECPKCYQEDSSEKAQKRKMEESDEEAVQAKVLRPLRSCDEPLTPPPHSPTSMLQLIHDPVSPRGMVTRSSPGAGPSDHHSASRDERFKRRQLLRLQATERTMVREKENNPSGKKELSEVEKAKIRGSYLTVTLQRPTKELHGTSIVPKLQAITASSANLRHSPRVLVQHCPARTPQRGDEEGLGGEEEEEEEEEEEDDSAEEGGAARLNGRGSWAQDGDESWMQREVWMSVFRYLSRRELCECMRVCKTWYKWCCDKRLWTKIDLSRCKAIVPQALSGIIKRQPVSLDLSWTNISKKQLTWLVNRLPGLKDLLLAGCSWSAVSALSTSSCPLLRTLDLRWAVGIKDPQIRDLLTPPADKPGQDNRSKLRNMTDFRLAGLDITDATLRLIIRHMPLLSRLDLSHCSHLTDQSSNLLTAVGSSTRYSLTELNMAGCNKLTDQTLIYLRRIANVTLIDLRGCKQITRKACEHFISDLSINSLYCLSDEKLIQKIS

Compound | IC50
O=C(O)c1ccnc(-c2cc(NC(=O)c3ccc(O)cc3)ccc2O)c1 | 89 µM
CC(=O)Nc1ccc(O)c(-c2cc(C(=O)O)ccn2)c1 | > 100 µM
Cc1cc(C(=O)Nc2ccc(O)c(-c3cc(C(=O)O)ccn3)c2)no1 | 76 µM
COc1cccc(CC(=O)Nc2ccc(O)c(-c3cc(C(=O)O)ccn3)c2)c1 | 89 µM
COCC(=O)Nc1ccc(O)c(-c2cc(C(=O)O)ccn2)c1 | 91 µM

molecular target: Lysine-specific demethylase 6B (Homo sapiens, UniProt O15054); test: Inhibition of KDM6B (unknown origin) expressed in Escherichia coli using H3 (21 to 44 residues) K27Me3-GGK-Biotin JMJD3 Cognate Ligand/10 uM alpha-ketoglutarate as substrate/cofactor preincubated for 5 mins followed by substrate addition measured after 5 mins by alphascreen assay
Sequence (O15054 whole entry, the tested form may be a part): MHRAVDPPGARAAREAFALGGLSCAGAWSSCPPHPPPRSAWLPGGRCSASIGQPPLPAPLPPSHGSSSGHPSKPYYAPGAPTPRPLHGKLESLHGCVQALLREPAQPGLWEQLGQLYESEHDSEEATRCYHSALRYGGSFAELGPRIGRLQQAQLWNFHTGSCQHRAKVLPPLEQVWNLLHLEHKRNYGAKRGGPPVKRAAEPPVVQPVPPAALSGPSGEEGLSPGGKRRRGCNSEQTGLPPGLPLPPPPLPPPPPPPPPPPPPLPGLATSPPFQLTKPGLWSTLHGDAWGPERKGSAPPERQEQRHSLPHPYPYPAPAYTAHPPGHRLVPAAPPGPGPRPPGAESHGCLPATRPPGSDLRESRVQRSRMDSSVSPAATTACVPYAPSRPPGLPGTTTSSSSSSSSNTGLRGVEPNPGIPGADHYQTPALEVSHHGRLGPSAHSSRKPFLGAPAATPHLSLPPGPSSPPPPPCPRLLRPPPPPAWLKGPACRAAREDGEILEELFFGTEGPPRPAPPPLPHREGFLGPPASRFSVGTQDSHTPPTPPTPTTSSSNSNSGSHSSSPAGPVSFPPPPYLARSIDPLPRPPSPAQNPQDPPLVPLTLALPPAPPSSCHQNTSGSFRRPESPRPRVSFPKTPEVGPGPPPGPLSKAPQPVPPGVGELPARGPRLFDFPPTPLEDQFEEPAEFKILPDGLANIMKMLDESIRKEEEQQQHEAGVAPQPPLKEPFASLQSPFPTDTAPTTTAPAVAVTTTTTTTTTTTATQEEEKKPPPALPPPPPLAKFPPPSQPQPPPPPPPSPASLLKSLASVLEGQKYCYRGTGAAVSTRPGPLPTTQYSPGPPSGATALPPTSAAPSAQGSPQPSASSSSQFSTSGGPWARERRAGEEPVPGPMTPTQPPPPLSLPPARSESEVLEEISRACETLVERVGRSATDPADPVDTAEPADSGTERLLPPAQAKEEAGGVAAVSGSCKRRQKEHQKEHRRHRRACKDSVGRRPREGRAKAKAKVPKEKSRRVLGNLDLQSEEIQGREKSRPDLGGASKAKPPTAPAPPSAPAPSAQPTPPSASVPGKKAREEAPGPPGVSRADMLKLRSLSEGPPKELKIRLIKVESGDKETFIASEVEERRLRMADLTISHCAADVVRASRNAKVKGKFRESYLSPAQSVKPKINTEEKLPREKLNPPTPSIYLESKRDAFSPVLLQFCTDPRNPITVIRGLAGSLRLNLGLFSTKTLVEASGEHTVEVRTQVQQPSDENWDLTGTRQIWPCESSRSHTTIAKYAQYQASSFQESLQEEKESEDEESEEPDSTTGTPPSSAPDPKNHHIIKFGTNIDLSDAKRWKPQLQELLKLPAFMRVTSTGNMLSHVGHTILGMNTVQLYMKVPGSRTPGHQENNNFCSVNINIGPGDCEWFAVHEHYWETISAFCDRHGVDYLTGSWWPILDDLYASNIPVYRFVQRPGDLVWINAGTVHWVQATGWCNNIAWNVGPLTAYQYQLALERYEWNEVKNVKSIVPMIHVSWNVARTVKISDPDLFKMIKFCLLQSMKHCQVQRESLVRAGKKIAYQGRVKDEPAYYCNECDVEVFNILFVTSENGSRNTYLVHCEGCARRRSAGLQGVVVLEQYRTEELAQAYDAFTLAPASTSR

Compound | IC50
O=C(O)c1ccnc(-c2cc(NC(=O)c3ccc(O)cc3)ccc2O)c1 | 27 µM
CC(=O)Nc1ccc(O)c(-c2cc(C(=O)O)ccn2)c1 | > 100 µM
Cc1cc(C(=O)Nc2ccc(O)c(-c3cc(C(=O)O)ccn3)c2)no1 | 31 µM
COc1cccc(CC(=O)Nc2ccc(O)c(-c3cc(C(=O)O)ccn3)c2)c1 | 16 µM
COCC(=O)Nc1ccc(O)c(-c2cc(C(=O)O)ccn2)c1 | > 100 µM

molecular target: Lysine-specific demethylase 5A (Homo sapiens, UniProt P29375); test: Inhibition of KDM5A (1 to 797 residues) (unknown origin) expressed in insect sf21 cells using ARTK(Me3)QTARKSTGGKAPRK peptide/ 100 uM alpha-ketoglutarate as substrate/cofactor incubated for 45 mins by MALDI assay

Compound | IC50
O=C(O)c1ccnc(-c2cc(NC(=O)c3ccc(O)cc3)ccc2O)c1 | 45 µM
CC(=O)Nc1ccc(O)c(-c2cc(C(=O)O)ccn2)c1 | 240 µM
Cc1cc(C(=O)Nc2ccc(O)c(-c3cc(C(=O)O)ccn3)c2)no1 | 23 µM
COc1cccc(CC(=O)Nc2ccc(O)c(-c3cc(C(=O)O)ccn3)c2)c1 | 52 µM
COCC(=O)Nc1ccc(O)c(-c2cc(C(=O)O)ccn2)c1 | 180 µM

molecular target: Hypoxia-inducible factor 1-alpha inhibitor (Homo sapiens, UniProt Q9NWT6); test: Inhibition of N-terminal His6-tagged full-length FIH (unknown origin) expressed in Escherichia coli Rosetta 2(DE3)pLysS using SMDESGLPQLTSYDCEVNAPIQGSRNLLQGEELLRALDQVN peptide/100 uM alpha-ketoglutarate as substrate/cofactor incubated for 45 mins by MALDI assay
Sequence (Q9NWT6 whole entry): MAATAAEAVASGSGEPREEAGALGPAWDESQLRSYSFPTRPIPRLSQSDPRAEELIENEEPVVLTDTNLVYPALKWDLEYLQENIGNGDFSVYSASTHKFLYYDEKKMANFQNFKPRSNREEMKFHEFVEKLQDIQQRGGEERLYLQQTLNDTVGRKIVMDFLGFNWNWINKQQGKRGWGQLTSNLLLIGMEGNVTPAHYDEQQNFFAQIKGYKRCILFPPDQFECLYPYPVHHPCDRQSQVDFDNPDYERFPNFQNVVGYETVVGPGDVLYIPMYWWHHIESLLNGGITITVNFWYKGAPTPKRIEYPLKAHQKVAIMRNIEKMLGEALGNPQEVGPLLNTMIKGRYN

Compound | IC50
O=C(O)c1ccnc(-c2cc(NC(=O)c3ccc(O)cc3)ccc2O)c1 | > 500 µM
CC(=O)Nc1ccc(O)c(-c2cc(C(=O)O)ccn2)c1 | > 500 µM
Cc1cc(C(=O)Nc2ccc(O)c(-c3cc(C(=O)O)ccn3)c2)no1 | 473 µM
COc1cccc(CC(=O)Nc2ccc(O)c(-c3cc(C(=O)O)ccn3)c2)c1 | > 500 µM
COCC(=O)Nc1ccc(O)c(-c2cc(C(=O)O)ccn2)c1 | > 500 µM

molecular target: T2, Lysine-specific demethylase 4C (Homo sapiens, UniProt Q9H3R0); test: Inhibition of N-terminal His6-tagged KDM4C (1 to 352 residues) (unknown origin) expressed in Escherichia coli Rosetta 2(DE3)pLysS using biotinylated peptide/ 2 uM alpha-ketoglutarate as substrate/cofactor preincubated for 15 mins followed by substrate addition measured after 15 mins by alphascreen assay
T2 sequence (Q9H3R0 whole entry): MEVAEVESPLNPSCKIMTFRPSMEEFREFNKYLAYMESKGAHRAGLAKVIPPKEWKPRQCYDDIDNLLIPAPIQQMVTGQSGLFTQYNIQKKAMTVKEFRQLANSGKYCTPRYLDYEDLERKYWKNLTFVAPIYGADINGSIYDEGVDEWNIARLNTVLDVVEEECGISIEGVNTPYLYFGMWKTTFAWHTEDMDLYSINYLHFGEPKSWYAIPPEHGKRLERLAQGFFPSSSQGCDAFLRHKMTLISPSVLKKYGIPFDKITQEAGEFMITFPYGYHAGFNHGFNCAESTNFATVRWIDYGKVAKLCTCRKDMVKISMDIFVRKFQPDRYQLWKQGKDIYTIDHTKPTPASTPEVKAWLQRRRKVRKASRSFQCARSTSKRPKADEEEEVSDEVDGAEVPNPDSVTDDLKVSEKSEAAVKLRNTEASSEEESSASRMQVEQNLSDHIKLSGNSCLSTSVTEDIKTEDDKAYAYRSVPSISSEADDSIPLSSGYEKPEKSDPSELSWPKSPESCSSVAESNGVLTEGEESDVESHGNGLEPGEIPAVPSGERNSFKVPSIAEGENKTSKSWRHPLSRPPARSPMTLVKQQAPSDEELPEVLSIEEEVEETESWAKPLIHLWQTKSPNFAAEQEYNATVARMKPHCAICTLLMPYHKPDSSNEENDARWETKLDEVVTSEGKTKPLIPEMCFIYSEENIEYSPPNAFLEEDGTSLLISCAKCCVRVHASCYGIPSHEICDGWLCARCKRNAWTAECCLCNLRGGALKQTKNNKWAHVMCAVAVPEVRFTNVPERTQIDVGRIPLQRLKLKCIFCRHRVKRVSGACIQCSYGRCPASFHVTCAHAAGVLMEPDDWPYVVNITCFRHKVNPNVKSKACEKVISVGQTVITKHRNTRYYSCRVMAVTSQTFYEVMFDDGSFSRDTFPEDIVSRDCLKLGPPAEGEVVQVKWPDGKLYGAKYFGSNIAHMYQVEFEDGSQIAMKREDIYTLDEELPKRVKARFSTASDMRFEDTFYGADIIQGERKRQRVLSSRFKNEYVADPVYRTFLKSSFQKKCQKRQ

Compound | IC50
O=C(O)c1ccnc(-c2cc(NC(=O)c3ccc(O)cc3)ccc2O)c1 | 12 µM
CC(=O)Nc1ccc(O)c(-c2cc(C(=O)O)ccn2)c1 | 15 µM
Cc1cc(C(=O)Nc2ccc(O)c(-c3cc(C(=O)O)ccn3)c2)no1 | 5.5 µM
COc1cccc(CC(=O)Nc2ccc(O)c(-c3cc(C(=O)O)ccn3)c2)c1 | 9.9 µM
COCC(=O)Nc1ccc(O)c(-c2cc(C(=O)O)ccn2)c1 | 3.8 µM

molecular target: Lysine-specific demethylase 5B (Homo sapiens, UniProt Q9UGL1); test: Inhibition of KDM5B (unknown origin) expressed in Escherichia coli using H3 (1 to 21 residues) K4Me3-GGK-Biotin KDM5B Cognate Ligand/10 uM alpha-ketoglutarate as substrate/cofactor preincubated for 5 mins followed by substrate addition measured after 20 mins by alphascreen assay
Sequence (Q9UGL1 whole entry, the tested form may be a part): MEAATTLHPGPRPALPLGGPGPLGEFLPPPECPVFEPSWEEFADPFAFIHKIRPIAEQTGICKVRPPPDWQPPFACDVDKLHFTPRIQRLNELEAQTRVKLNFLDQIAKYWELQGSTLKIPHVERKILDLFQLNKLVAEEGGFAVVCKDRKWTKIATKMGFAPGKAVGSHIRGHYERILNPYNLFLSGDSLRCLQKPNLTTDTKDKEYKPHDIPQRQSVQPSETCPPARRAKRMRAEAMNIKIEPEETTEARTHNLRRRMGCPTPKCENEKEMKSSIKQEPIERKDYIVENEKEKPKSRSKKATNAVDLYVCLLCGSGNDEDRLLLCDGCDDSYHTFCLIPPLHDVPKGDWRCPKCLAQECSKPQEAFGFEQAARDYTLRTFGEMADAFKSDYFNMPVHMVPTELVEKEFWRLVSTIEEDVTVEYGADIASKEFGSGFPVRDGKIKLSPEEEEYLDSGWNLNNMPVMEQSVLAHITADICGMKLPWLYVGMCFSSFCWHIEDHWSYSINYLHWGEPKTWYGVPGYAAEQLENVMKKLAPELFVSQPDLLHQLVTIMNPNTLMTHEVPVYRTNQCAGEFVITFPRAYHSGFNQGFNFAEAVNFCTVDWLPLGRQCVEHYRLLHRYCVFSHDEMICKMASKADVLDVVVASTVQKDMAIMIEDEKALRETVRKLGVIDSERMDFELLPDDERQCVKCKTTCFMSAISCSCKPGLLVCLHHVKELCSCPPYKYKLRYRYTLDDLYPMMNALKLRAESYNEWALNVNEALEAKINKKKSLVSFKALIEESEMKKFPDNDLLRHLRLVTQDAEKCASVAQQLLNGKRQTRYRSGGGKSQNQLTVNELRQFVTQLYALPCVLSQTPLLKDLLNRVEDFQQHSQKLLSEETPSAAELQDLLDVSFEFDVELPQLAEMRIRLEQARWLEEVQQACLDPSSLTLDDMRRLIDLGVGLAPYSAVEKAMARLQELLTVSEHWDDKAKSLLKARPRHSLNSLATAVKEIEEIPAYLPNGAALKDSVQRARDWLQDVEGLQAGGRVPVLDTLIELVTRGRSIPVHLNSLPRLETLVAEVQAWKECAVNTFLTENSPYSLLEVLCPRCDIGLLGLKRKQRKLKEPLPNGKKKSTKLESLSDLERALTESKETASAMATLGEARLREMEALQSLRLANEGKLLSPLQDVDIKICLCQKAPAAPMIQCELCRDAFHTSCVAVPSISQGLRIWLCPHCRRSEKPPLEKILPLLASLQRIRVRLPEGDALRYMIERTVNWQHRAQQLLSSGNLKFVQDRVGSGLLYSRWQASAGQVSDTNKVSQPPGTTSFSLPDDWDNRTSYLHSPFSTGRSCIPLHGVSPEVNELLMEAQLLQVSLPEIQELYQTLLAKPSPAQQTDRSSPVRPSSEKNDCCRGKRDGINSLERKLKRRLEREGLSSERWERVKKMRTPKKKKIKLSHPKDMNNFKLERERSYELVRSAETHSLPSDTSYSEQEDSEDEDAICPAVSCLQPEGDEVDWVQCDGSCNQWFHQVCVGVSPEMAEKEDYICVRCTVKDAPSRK

Compound | IC50
O=C(O)c1ccnc(-c2cc(NC(=O)c3ccc(O)cc3)ccc2O)c1 | 19 µM
CC(=O)Nc1ccc(O)c(-c2cc(C(=O)O)ccn2)c1 | 72 µM
Cc1cc(C(=O)Nc2ccc(O)c(-c3cc(C(=O)O)ccn3)c2)no1 | 2.7 µM
COc1cccc(CC(=O)Nc2ccc(O)c(-c3cc(C(=O)O)ccn3)c2)c1 | 22 µM
COCC(=O)Nc1ccc(O)c(-c2cc(C(=O)O)ccn2)c1 | 12 µM

molecular target: T2, Lysine-specific demethylase 4C; test: Inhibition of N-terminal His6-tagged KDM4C (1 to 352 residues) (unknown origin) expressed in Escherichia coli Rosetta 2(DE3)pLysS using ARTKQTARK(Me3)STGGKA peptide/100 uM alpha-ketoglutarate as substrate/cofactor incubated for 45 mins by MALDI assay

Compound | IC50
O=C(O)c1ccnc(-c2cc(NC(=O)c3ccc(O)cc3)ccc2O)c1 | 5.9 µM
CC(=O)Nc1ccc(O)c(-c2cc(C(=O)O)ccn2)c1 | 63 µM
Cc1cc(C(=O)Nc2ccc(O)c(-c3cc(C(=O)O)ccn3)c2)no1 | 16 µM
COc1cccc(CC(=O)Nc2ccc(O)c(-c3cc(C(=O)O)ccn3)c2)c1 | 7.3 µM
COCC(=O)Nc1ccc(O)c(-c2cc(C(=O)O)ccn2)c1 | 47 µM

From ChEMBL document CHEMBL3774347, “Docking and Linking of Fragments To Discover Jumonji Histone Demethylase Inhibitors” (J Med Chem, 2016)
